From PubChem BioAssay AID1918936 (Molecular Pharmacology Branch, DTP, NCI, 2023)

System: 349418-098-R-PDC complex spheroid viability
Assay: Anticancer human tumor 349418-098-R-PDC patient-derived lung adenocarcinoma cell line growth inhibition
Conditions: for IC50: curve of first compound; for viability, T/C: stronger effect = lower value
In short: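 Complex spheroids of tumor cells with HUVEC and human MSCs, exposed to iadademstat combined with other agents. Each agent tested in half-log steps from near clinical Cmax (else 10 microM top), DMSO ≤0.25%.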
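Also: spheroids exposed to agents for seven days before readout.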
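For viability, T/C in this document: 100% = DMSO vehicle control wells.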

`CCc1c2c(nc3ccc(O)cc13)-c1cc3c(c(=O)n1C2)COC(=O)[C@]3(O)CC` + NC1CC1c1ccc(-c2cccc(O)c2)cc1 gave an IC50 (second compound 0.1 µM) of under 0.949 nM, an IC50 (second compound 0.316 µM) of under 0.949 nM and an IC50 (second compound 1 µM) of under 0.949 nM. For the same molecule, the IC50 (second compound 3.16 µM) was under 0.949 nM, the IC50 (second compound 10 µM) was under 0.949 nM and the viability, T/C (second compound 0.1 µM, first compound 0.000949 µM) was 3.35%. It also gave a viability, T/C (second compound 0.1 µM, first compound 0.003 µM) of 2.46%, a viability, T/C (second compound 0.1 µM, first compound 0.00949 µM) of 1.32% and a viability, T/C (second compound 0.1 µM, first compound 0.03 µM) of 1.41%. It also gave a viability, T/C (second compound 0.1 µM, first compound 0.0949 µM) of 1.92%, a viability, T/C (second compound 0.1 µM, first compound 0.3 µM) of 1.96% and a viability, T/C (second compound 0.316 µM, first compound 0.000949 µM) of 3.19%. It also gave a viability, T/C (second compound 0.316 µM, first compound 0.003 µM) of 2.09%, a viability, T/C (second compound 0.316 µM, first compound 0.00949 µM) of 1.26% and a viability, T/C (second compound 0.316 µM, first compound 0.03 µM) of 1.31%. It also gave a viability, T/C (second compound 0.316 µM, first compound 0.0949 µM) of 1.59%, a viability, T/C (second compound 0.316 µM, first compound 0.3 µM) of 1.98% and a viability, T/C (second compound 1 µM, first compound 0.000949 µM) of 3.23%. The viability, T/C (second compound 1 µM, first compound 0.003 µM) was 2.09%, the viability, T/C (second compound 1 µM, first compound 0.00949 µM) was 1.23% and the viability, T/C (second compound 1 µM, first compound 0.03 µM) was 1.48%. For the same molecule, the viability, T/C (second compound 1 µM, first compound 0.0949 µM) was 1.67%, the viability, T/C (second compound 1 µM, first compound 0.3 µM) was 1.92% and the viability, T/C (second compound 3.16 µM, first compound 0.000949 µM) was 3.45%. For the same molecule, the viability, T/C (second compound 3.16 µM, first compound 0.003 µM) was 2.17%, the viability, T/C (second compound 3.16 µM, first compound 0.00949 µM) was 1.37% and the viability, T/C (second compound 3.16 µM, first compound 0.03 µM) was 1.52%. For the same molecule, the viability, T/C (second compound 3.16 µM, first compound 0.0949 µM) was 1.8%, the viability, T/C (second compound 3.16 µM, first compound 0.3 µM) was 1.56% and the viability, T/C (second compound 10 µM, first compound 0.000949 µM) was 3.42%. The viability, T/C (second compound 10 µM, first compound 0.003 µM) was 1.99%, the viability, T/C (second compound 10 µM, first compound 0.00949 µM) was 1.52% and the viability, T/C (second compound 10 µM, first compound 0.03 µM) was 1.31%. It also gave a viability, T/C (second compound 10 µM, first compound 0.0949 µM) of 1.59% and a viability, T/C (second compound 10 µM, first compound 0.3 µM) of 1.47%.
